The nature of series [1]: Properties of the active ingredients (solubility, lipophilicity). The series is classed as physicochemical.
The test system of series [2] is cultured cortical cells of the rat. Kind of series: L-glutamate excitotoxicity in cultured cortical cells, cell death by LDH release (Tests 1 and 2). Format: cell-based. To be noted: active ingredient 500 nm plus 10 nm L-glutamate; after 10, 30 and 60 minutes compared with the control group (FIG. 1, FIG. 2). The procedure:
Dissociated cortical cells from 16-18 day old fetal rats were bred in 35 mm dishes. The nutrient medium contained during the first 7 days L-lutamine (4 mM), glucose (6 g/l), penicillin (100 U/ml), streptomycin (100 μg/ml) and 10% hormonally enriched medium, which [contained] transferrin (1 mg/ml), insulin (250 μg/ml), putrescine (600 μM), sodium selenite (0.3 μM), progesterone (0.2 μM) and estradio (0.1 μM). The dishes were stored in an atmosphere (5% CO2 and […]) heated to 37 degrees Celsius.
To form the control group (Series 1), half of the dishes were supplemented with the nutrient medium 10 nm L-glutamate and incubated under normotoxic conditions for 4 hours.
To determine the neuroprotective properties, the other half of the dishes were supplemented with the nutrient medium flunitrazepam 500 nm and 10 nm L-glutamate (Series 2) and likewise incubated under normotoxic conditions.
The number of surviving or devitalized cells was determined by determination of the amount of lactate-dehydrogenase (LDH) ejected into the cell medium. The LDH activity was determined photospectrometrically by measurement of the NADH metabolism at 340 nm. […]
In the diagrams of FIG. 1 and FIG. 2 the measured values were entered as follows: The measured value describes the number of dead cells after the test in relation to the total number of cells before the test in percent. […]
(Release of lactate dehydrogenase indicates damage to the cell membrane.)

Consider three compounds from patent US20040102438A1, “Gaba-receptor modulators for the treatment of neurodegenerative diseases of the eye” (priority 2001, published 2004).

For the compound `Cc1ncc2n1-c1ccc(Cl)cc1C(c1ccccc1F)=NC2` [Midazolam], the water solubility result in series [1] is listed as “water-soluble”.

Turning to `COCc1c(C(=O)OC(C)C)ncc2[nH]c3ccc(OCc4ccccc4)cc3c12` [abecamil, abecarnil], the “number of dying cells” value in series [2] is recorded as “reduction in the number of dying cells”.

With `CN1C(=O)CN=C(c2ccccc2F)c2cc([N+](=O)[O-])ccc21` [flunitrazepam], the “number of dying cells” value in series [2] was “reduction in the number of dying cells”.
